Assay results as given in US20240252582A1, “METHODS FOR TREATING AMBLYOPIA” (City University of Hong Kong, priority 2023, published 2024).
Non-standard residues stand in square brackets, D forms with d. Phe(3-Br) = N[C@@H](Cc1cccc(Br)c1)C(=O)O; Nle = CCCC[C@H](N)C(=O)O

What was measured:
[1] = tested on: juvenile C57BL/6 mice model of amblyopia (LTMD); assay: Visual water behavioral test of visual acuity after long-term monocular deprivation; format: in vivo; conditions: for Visual acuity: Long-term MD (P21-P42) mice, WT adult 0.44; for Performance (percentage accuracy) during training after treatment / Cutoff (70% accuracy) achieved during testing / Visual acuity, Mean±SEM (FIG. 2G, post hoc analysis): juvenile LTMD mice; for Performance (percentage accuracy) during training after treatment: cutoff 70% accuracy (FIG. 2F); for Visual acuity, Mean±SEM (FIG. 2G, post hoc analysis): WT 0.44±0.02 (P>0.05)
Excerpt: Amblyopia patients usually have poor visual acuity. It is believed that the method according to the invention can reverse the lost visual acuity in amblyopia patients. FIGS. 2A-2G illustrate the assessment of visual acuity using visual water maze. Dotted line represents the 70% accuracy as cutoff. As shown in FIGS. 2C-2E, WT adult (P60) mice with no MD show cutoff at cpd 0.45 achieved during testing by all the animals (12 animals). After LTMD in juvenile followed by saline (infusion)/CCK8s treatment, the mice show cutoff at cpd 0.30 and 0.52 respectively achieved during testing by all the animals (11 animals/12 animals respectively). After LTMD in juvenile followed by saline (i.p)/CCKBR agonist (3r1) treatment, the mice show cutoff at cpd 0.33 and 0.46 respectively achieved during testing by all the animals (11 animals/15 animals respectively). […] The performance of the animals during training in WT adult (P60) with no MD, before and after remained unchanged. After LTMD in juvenile, the performance of animals during training before and after saline (infusion) treatment remained unchanged and the performance of animals during training before and after CCK8s treatment show the difference. […] After LTMD in juvenile, the performance of animals during training before and after saline (i.p) treatment remained unchanged and the performance of animals during training before and after CCK-agonist (3r1) treatment show the difference. […] A significant difference is observed between saline (infusion) and CCK8s treated animals (P<0.001) and in between saline (i.p) and CCKBR agonist (3r1) (P<0.001). No significant difference in visual acuity observed in adult (P60), no MD and juvenile LTMD following CCK8s and CCKBR agonist (3r1) treated animals (P>0.05). Error bars in FIG. 2G indicate the standard error of the mean (SEM).
Visual water behavioral test is performed to show visual acuity improvement following long-term monocular deprivation after administration of CCK8s and CCKBR agonist (3r1). Each animal learns quickly to associate swimming to the escape platform placed below the screen displaying grating stimuli during pre-training phase and post-training phase. Animals of all groups learn serendipitously during training to swim to the end of the divider, and then look at each screen several times before making their choice.
FIGS. 2A and 2B show the behavioural experimental design of this example: (CCK8s) infusion in V1 and CCKBR agonist (3r1)(i.p). The testing criterion in the training phase (from P42 to P47) is reached for all mice within four sessions (32 trials). Average performance above 70% accuracy is maintained for all mice of different groups (FIG. 2F). The visual acuity of the groups is illustrated in FIGS. 2C-2E.

[2] = tested on: juvenile C57BL/6 mice model of amblyopia (LTMD); assay: In-vivo electrophysiology (spike recording in V1), contralateral bias index after long-term monocular deprivation
Protocol: The mice are anesthetized through the application of a K-X combination during the surgical preparation. The body temperatures of the mice are maintained at 37° C. by use of a homeostatically controlled heating pad during the surgery. Following the induction of anesthesia, each mouse is mounted on a stereotaxic instrument (RWD Life Science, Shenzhen, China) and an incision is made along the midline of the head. The stereotaxic instrument is adjusted to place the bregma and lambda points of the skull on a flat skull surface (anteroposterior: −3.2 mm to −4.0 mm; mediolateral: 3.0-3.8 mm, relative to bregma). A piece of the scalp over the V1 is removed to expose the cortex, and a bone screw is fixed in the frontal bone as the reference electrode. The exposed cortical surface is then covered with extracellular saline (in mM: 125 NaCl, 5 KCl, 10 glucose, 10 4-(2-hydroxyethyl)-1-piperazineethanesulphonicacid [HEPES], and 2 CaCl2; pH adjusted to 7.4) to prevent drying of the surface. The electrode is lowered into the brain to an appropriate depth (V1≤1 mm) and is allowed to settle for 30 min before recording is begun. In each mouse, 3-4 separate penetrations are spaced evenly at least 200 μm apart across the binocular region of V1. The eyes are kept moist with ophthalmic lubricant ointment until recording to prevent drying while enabling clear optical transmission. At the end of the recording, the mice are euthanized by injection of an overdose of Dorminal (300 mg/kg).
Visual stimuli of sinusoidal drifting gratings with increasing orientation angles(0-330°) and 0.4 cpd are presented in random order to alternate eyes. The spike recordings are performed with the use of a polyimide-coated platinum/iridium (70:30) ribbon microelectrode array (Clunbury Scientific LLC, USA). The tip resistances are 30-50 kΩ. The A-M Systems 3600 (A-M Systems, USA) and CED Micro 1401-3 (Cambridge Electronic Design, UK) instruments are used as the amplifier and data acquisition system, respectively. The signals are sampled at 25 kHz and bandpass-filtered at 300 Hz-3 KHz for spike, amplified, and fed to spike2 software (Cambridge Electronic Design, UK). Offline analysis is performed using MATLAB (R2020b, Math Works, USA). To begin, the raw data are transformed into a MATLAB-compatible format. Spike sorting is used to distinguish various units collected at the same time in the spike data. Wave clus, a MATLAB tool, is used to categorize the units based on the characteristics of their waveforms.
The neuronal response in the Visual cortex (V1) is recorded extracellularly, while the same visual stimulus with varied orientation is presented to either of the eyes alternatively, and the relative strength of the response is determined.
To quantify the deprivation effect, the inventors calculate the contralateral bias index (CBI) from spikes (response from the single neuron) using the following formula:
where NT is the total number of units and NX is the number of units with OD scores equal to x (x=1, 2, 3, 5, 6, 7). For the sum of the number of cells in each category is used to calculate the CBI for each animal.
FIGS. 1A and 1B, show the timeline of the experimental setup, i.e. LTMD, surgery, dosing, and in-vivo electrophysiology used in the second and third experiments. In the second experiments, in juvenile after LTMD, saline or CCK8s (Cholecystokinin octapeptide (Tocris Bioscience, UK): 1 ul each day (10 ng/ul), Cholecystokinin octapeptide (Tocris Bioscience, UK)) is infused (treatment) for 15 days (from P42 to P57) in V1. […] The ipsilateral eye is dominated. Contrarily, in the group treated with CCK8s (infusion in V1), the ocular dominance shifts from the ipsilateral eye towards the contralateral eye (CBI=0.65, 12 animals) (FIG. 1G).
In juvenile after LTMD, 3r1 (a type of CCKBR agonist, Guangzhou Institute of Biomedicine and Health, affiliated with the Chinese Academy of Sciences, Guangzhou, China) (4.18 uM) is administered intraperitoneally (i.p). […]

Substance	Visual acuity ([1]; i.p., saline (i.p) 0.33) [c/d]	Performance (percentage accuracy) during training after treatment [1]	Cutoff (70% accuracy) achieved during testing ([1]; i.p., saline (i.p) 0.33, WT 0.45 (FIG. 2E)) [cpd]	Visual acuity, Mean±SEM (FIG. 2G, post hoc analysis) ([1]; i.p., saline (i.p) 0.33±0.01 (P<0.001)) [c/d]	Contralateral bias index (CBI) ([2]; juvenile LTMD mice, i.p., 4 doses on alternate days for 7 days, 0.0122890 mg/kg per dose, saline CBI=0.31)	Contralateral bias index (CBI) ([2]; juvenile LTMD mice, i.p., 8 doses on alternate days for 14 days, 0.0122890 mg/kg per dose, saline CBI=0.31)	Histogram of V1 cells, eye response bias ([2]; juvenile LTMD mice, treatment for fourteen days (FIG. 1J))	Histogram of V1 cells, eye response bias ([2]; juvenile LTMD mice, treatment for seven days (FIG. 1I))	Visual acuity ([1]; infusion, saline (infusion) 0.3) [c/d]	Visual acuity, Mean±SEM (FIG. 2G, post hoc analysis) ([1]; infusion, saline 0.309±0.01 (P<0.001)) [c/d]	Cutoff (70% accuracy) achieved during testing ([1]; infusion, saline (infusion) 0.30, WT 0.45 (FIG. 2D)) [cpd]	Contralateral bias index (CBI) ([2]; juvenile LTMD (P21-P42) mice, infusion in V1, 1 ul each day (10 ng/ul), 15 days (P42-P57), saline CBI=0.33)	Histogram of V1 cells, eye response bias ([2]; juvenile LTMD mice, infusion 15 days (FIG. 1G))
Ac-W[Nle]D[Phe(3-Br)]-NH2 [3r1]	0.46	reaches beyond the cutoff	0.46	0.46±0.02	0.66	0.68	strong contralateral eye bias	strong contralateral eye bias					
Cholecystokinin octapeptide [CCK8s, reference compound]		reaches beyond the cutoff							0.5	0.5±0.01	0.52	0.65	strong contralateral eye bias
